Laboratory results as given in PubChem BioAssay AID1259407 (Chemical Carcinogenesis Research Information System (CCRIS), 2018).
Active and inactive are the calls of the source. The rule behind the calls is not given here.

Tested on: CCRIS mutagenicity, Ames/micronucleus/aberration tests
Test: CCRIS mutagenicity studies
[1] = Test System: AMES SALMONELLA TYPHIMURIUM, Strain/Indicator: TA97, Metabolic Activation: HAMSTER, LIVER, S-9, AROCLOR 1254 (10%), Method: PREINCUBATION
[2] = Test System: AMES SALMONELLA TYPHIMURIUM, Strain/Indicator: TA97, Metabolic Activation: NONE, Method: PREINCUBATION
[3] = Test System: AMES SALMONELLA TYPHIMURIUM, Strain/Indicator: TA97, Metabolic Activation: RAT, LIVER, S-9, AROCLOR 1254 (10%), Method: PREINCUBATION
[4] = Test System: AMES SALMONELLA TYPHIMURIUM, Strain/Indicator: TA98, Metabolic Activation: HAMSTER, LIVER, S-9, AROCLOR 1254 (10%), Method: PREINCUBATION
[5] = Test System: AMES SALMONELLA TYPHIMURIUM, Strain/Indicator: TA98, Metabolic Activation: NONE, Method: PREINCUBATION
[6] = Test System: AMES SALMONELLA TYPHIMURIUM, Strain/Indicator: TA98, Metabolic Activation: RAT, LIVER, S-9, AROCLOR 1254 (10%), Method: PREINCUBATION
[7] = Test System: AMES SALMONELLA TYPHIMURIUM, Strain/Indicator: TA100, Metabolic Activation: NONE, Method: PREINCUBATION
[8] = Test System: AMES SALMONELLA TYPHIMURIUM, Strain/Indicator: TA100, Metabolic Activation: RAT, LIVER, S-9, AROCLOR 1254 (10%), Method: PREINCUBATION
[9] = Test System: AMES SALMONELLA TYPHIMURIUM, Strain/Indicator: TA98, Metabolic Activation: NONE, Method: STANDARD PLATE
[10] = Test System: AMES SALMONELLA TYPHIMURIUM, Strain/Indicator: TA98, Metabolic Activation: RAT, LIVER, S-9, AROCLOR 1254, Method: STANDARD PLATE
[11] = Test System: AMES SALMONELLA TYPHIMURIUM, Strain/Indicator: TA100, Metabolic Activation: NONE, Method: STANDARD PLATE
[12] = Test System: AMES SALMONELLA TYPHIMURIUM, Strain/Indicator: TA100, Metabolic Activation: RAT, LIVER, S-9, AROCLOR 1254, Method: STANDARD PLATE

Which mutagenic call [1] does the source give for `C1CCC(NC2CCCCC2)CC1` here?
Its mutagenic call is “inactive; negative”.

And the mutagenic call [2]?
The mutagenic call was “inactive; negative”.

What about the mutagenic call [3] of the same compound?
Its mutagenic call is “inactive; negative”.

What about the mutagenic call [4] of the same compound?
The mutagenic call was “inactive; negative”.

What about the mutagenic call [5] of the same compound?
Its mutagenic call is “inactive; negative”.

And the mutagenic call (Test System: AMES SALMONELLA TYPHIMURIUM, Strain/Indicator: TA98, Metabolic Activation: RAT LIVER S-9, PHENOBARBITAL AND BETA-NAPHTHOFLAVONE, Method: PREINCUBATION)?
Its mutagenic call is “inactive; negative”.

What about the mutagenic call [6] of the same compound?
The mutagenic call was “inactive; negative”.

What about the mutagenic call [7] of the same compound?
Its mutagenic call is “inactive; negative”.

And the mutagenic call (Test System: AMES SALMONELLA TYPHIMURIUM, Strain/Indicator: TA100, Metabolic Activation: RAT LIVER S-9, PHENOBARBITAL AND BETA-NAPHTHOFLAVONE, Method: PREINCUBATION)?
The mutagenic call was “inactive; negative”.

And the mutagenic call [8]?
The mutagenic call was “inactive; negative”.

What about the mutagenic call (Test System: AMES SALMONELLA TYPHIMURIUM, Strain/Indicator: TA1535, Metabolic Activation: RAT LIVER S-9, PHENOBARBITAL AND BETA-NAPHTHOFLAVONE, Method: PREINCUBATION) of the same compound?
Its mutagenic call is “inactive; negative”.

And the mutagenic call (Test System: AMES SALMONELLA TYPHIMURIUM, Strain/Indicator: TA1537, Metabolic Activation: HAMSTER, LIVER, S-9, AROCLOR 1254 (10%), Method: PREINCUBATION)?
Its mutagenic call is “inactive; negative”.

And the mutagenic call (Test System: AMES SALMONELLA TYPHIMURIUM, Strain/Indicator: TA1537, Metabolic Activation: NONE, Method: PREINCUBATION)?
Its mutagenic call is “inactive; negative”.

And the mutagenic call (Test System: AMES SALMONELLA TYPHIMURIUM, Strain/Indicator: TA1537, Metabolic Activation: RAT LIVER S-9, PHENOBARBITAL AND BETA-NAPHTHOFLAVONE, Method: PREINCUBATION)?
The mutagenic call was “inactive; negative”.

What about the mutagenic call (Test System: AMES SALMONELLA TYPHIMURIUM, Strain/Indicator: TA1537, Metabolic Activation: RAT, LIVER, S-9, AROCLOR 1254 (10%), Method: PREINCUBATION) of the same compound?
The mutagenic call was “inactive; negative”.

And the mutagenic call (Test System: E.COLI, Strain/Indicator: WP2UVRA/PKM101, Metabolic Activation: NONE, Method: PREINCUBATION)?
The mutagenic call was “inactive; negative”.

What about the mutagenic call (Test System: E.COLI, Strain/Indicator: WP2UVRA/PKM101, Metabolic Activation: RAT LIVER S-9, PHENOBARBITAL AND BETA-NAPHTHOFLAVONE, Method: PREINCUBATION) of the same compound?
The mutagenic call was “inactive; negative”.

Which results are given for `Cc1nc2c(c3[nH]c4ccccc4c13)C(=O)C=C(N1CC1)C2=O`?
mutagenic call (Test System: AMES SALMONELLA TYPHIMURIUM, Strain/Indicator: TA97, Metabolic Activation: NONE, Method: STANDARD PLATE): active; positive; mutagenic call (Test System: AMES SALMONELLA TYPHIMURIUM, Strain/Indicator: TA97, Metabolic Activation: RAT, LIVER, S-9, AROCLOR 1254, Method: STANDARD PLATE): active; positive; mutagenic call [9]: active; positive; mutagenic call [10]: active; positive; mutagenic call [11]: active; positive; mutagenic call [12]: active; positive; mutagenic call (Test System: AMES SALMONELLA TYPHIMURIUM, Strain/Indicator: TA102, Metabolic Activation: NONE, Method: STANDARD PLATE): inactive; negative; mutagenic call (Test System: AMES SALMONELLA TYPHIMURIUM, Strain/Indicator: TA102, Metabolic Activation: RAT, LIVER, S-9, AROCLOR 1254, Method: STANDARD PLATE): active; positive

What does the source list for `C[C@@H]1O[C@@H](OC[C@H]2O[C@@H](Oc3c(-c4ccc(OCCO)c(OCCO)c4)oc4cc(OCCO)cc(O)c4c3=O)[C@H](O)[C@@H](O)[C@@H]2O)[C@H](O)[C@H](O)[C@H]1O`?
mutagenic call [9]: inactive; negative; mutagenic call [10]: inactive; negative; mutagenic call [11]: inactive; negative; mutagenic call [12]: inactive; negative; mutagenic call (Test System: AMES SALMONELLA TYPHIMURIUM, Strain/Indicator: TA1535, Metabolic Activation: NONE, Method: STANDARD PLATE): inactive; negative; mutagenic call (Test System: AMES SALMONELLA TYPHIMURIUM, Strain/Indicator: TA1535, Metabolic Activation: RAT, LIVER, S-9, AROCLOR 1254, Method: STANDARD PLATE): inactive; negative; mutagenic call (Test System: AMES SALMONELLA TYPHIMURIUM, Strain/Indicator: TA1537, Metabolic Activation: NONE, Method: STANDARD PLATE): inactive; negative; mutagenic call (Test System: AMES SALMONELLA TYPHIMURIUM, Strain/Indicator: TA1537, Metabolic Activation: RAT, LIVER, S-9, AROCLOR 1254, Method: STANDARD PLATE): inactive; negative; mutagenic call (Test System: AMES SALMONELLA TYPHIMURIUM, Strain/Indicator: TA1538, Metabolic Activation: NONE, Method: STANDARD PLATE): inactive; negative; mutagenic call (Test System: AMES SALMONELLA TYPHIMURIUM, Strain/Indicator: TA1538, Metabolic Activation: RAT, LIVER, S-9, AROCLOR 1254, Method: STANDARD PLATE): inactive; negative

How did the mutagenic call (Test System: E. COLI, Strain/Indicator: WP2 (HCR-), Metabolic Activation: RAT, LIVER, MICROSOMES, PHENOBARBITAL) turn out when `CCCCN(CCCC)[N+](=O)[O-]` was run?
Its mutagenic call is “active; positive”.

For `O=C1C=C(Cl)C(=O)C1(Cl)Cl`, which mutagenic call [11] is on record?
Its mutagenic call is “active; positive”.

With `S=c1[nH]c2ccccc2[nH]1` as the compound, how does the mutagenic call [1] read?
The mutagenic call was “inactive; negative”.

And the mutagenic call (Test System: AMES SALMONELLA TYPHIMURIUM, Strain/Indicator: TA97, Metabolic Activation: HAMSTER, LIVER, S-9, AROCLOR 1254 (30%), Method: PREINCUBATION)?
The mutagenic call was “inactive; negative”.

What about the mutagenic call [2] of the same compound?
Its mutagenic call is “inactive; negative”.

What about the mutagenic call [3] of the same compound?
Its mutagenic call is “inactive; negative”.

What about the mutagenic call (Test System: AMES SALMONELLA TYPHIMURIUM, Strain/Indicator: TA97, Metabolic Activation: RAT, LIVER, S-9, AROCLOR 1254 (30%), Method: PREINCUBATION) of the same compound?
The mutagenic call was “inactive; negative”.

And the mutagenic call [4]?
Its mutagenic call is “inactive; negative”.

What about the mutagenic call (Test System: AMES SALMONELLA TYPHIMURIUM, Strain/Indicator: TA98, Metabolic Activation: HAMSTER, LIVER, S-9, AROCLOR 1254 (30%), Method: PREINCUBATION) of the same compound?
The mutagenic call was “inactive; negative”.

What about the mutagenic call [5] of the same compound?
Its mutagenic call is “inactive; negative”.

And the mutagenic call [6]?
Its mutagenic call is “inactive; negative”.

What about the mutagenic call (Test System: AMES SALMONELLA TYPHIMURIUM, Strain/Indicator: TA98, Metabolic Activation: RAT, LIVER, S-9, AROCLOR 1254 (30%), Method: PREINCUBATION) of the same compound?
Its mutagenic call is “inactive; negative”.

And the mutagenic call (Test System: AMES SALMONELLA TYPHIMURIUM, Strain/Indicator: TA100, Metabolic Activation: HAMSTER, LIVER, S-9, AROCLOR 1254 (10%), Method: PREINCUBATION)?
Its mutagenic call is “inactive; negative”.

What about the mutagenic call (Test System: AMES SALMONELLA TYPHIMURIUM, Strain/Indicator: TA100, Metabolic Activation: HAMSTER, LIVER, S-9, AROCLOR 1254 (30%), Method: PREINCUBATION) of the same compound?
The mutagenic call was “inactive; negative”.

What about the mutagenic call [7] of the same compound?
The mutagenic call was “inactive; negative”.

And the mutagenic call [8]?
Its mutagenic call is “inactive; negative”.

And the mutagenic call (Test System: AMES SALMONELLA TYPHIMURIUM, Strain/Indicator: TA100, Metabolic Activation: RAT, LIVER, S-9, AROCLOR 1254 (30%), Method: PREINCUBATION)?
Its mutagenic call is “inactive; negative”.

And the mutagenic call (Test System: AMES SALMONELLA TYPHIMURIUM, Strain/Indicator: TA1535, Metabolic Activation: HAMSTER, LIVER, S-9, AROCLOR 1254 (10 OR 30%), Method: PREINCUBATION)?
Its mutagenic call is “inactive; negative”.

And the mutagenic call (Test System: AMES SALMONELLA TYPHIMURIUM, Strain/Indicator: TA1535, Metabolic Activation: NONE, Method: PREINCUBATION)?
The mutagenic call was “inactive; negative”.

What about the mutagenic call (Test System: AMES SALMONELLA TYPHIMURIUM, Strain/Indicator: TA1535, Metabolic Activation: RAT, LIVER, S-9, AROCLOR 1254 (10 OR 30%), Method: PREINCUBATION) of the same compound?
The mutagenic call was “inactive; negative”.
